Experimental data from patent publication US20210128675A1, “LHRH-PACLITAXEL CONJUGATES AND METHODS OF USE” (priority 2019, published 2021).
Entries after “also recorded” stand apart in the source; their conditions may differ.

Experiments:
[1] = system: MDA-MB-231 human triple negative breast cancer cells xenograft; assay: subcutaneous xenograft tumor shrinkage study; assay type: in vivo, Athymic Nude-Foxn1nu strain mice; details: for tumor volume, 21-day group: after about two weeks, mean volume before treatment 98 mm^3; for xenograft tumor size, 28-day group: two weeks of drug administration, mean volume before treatment 230 mm^3; for tumor outcome, early stage (day 14 group): 10 mg/kg
Description: In this section, cell culture, tumor induction and drug injection studies were carried out. First, 20 μl of 1×10^6 MDA-MB-231 human triple negative cancer cells were cultured in T75 tissue culture flasks (CELLTREAT, Pepperell, Mass., USA). This was carried out at 37° C. until 70% confluence was reached. The cells were grown under normal atmospheric pressure levels in a “L15′ medium” that is typically made up of: L-15 medium (ATCC, Manassas, Va., USA), supplemented with 100 I.U./ml penicillin/100 µg/ml streptomycin and 10% FBS (ATCC, Manassas, Va., USA).
Forty 4-weekold Athymic Nude-FoxnInu strain mice with individual weights of ˜17 g each was purchase from Envigo (Somerset, N.J., USA). These animals were approved for use in the current work by the University of Massachusetts Medical School Institutional Animal Care and Use Committee (UMMS IACUC) with docket #A2630-17. All of the animals were maintained and used according to the approved UMMS IACUC procedure and guideline.
Subcutaneous tumor xenografts were induced by the injection of 5.0×10^6 of MDA-MB-231 human triple negative breast cancer cells (suspended in sterile saline) into the interscapular region (for a better angiogenic response). Tumor formation was carefully assessed by palpation. Tumor growth was then monitored daily with the digital calipers. The tumor volume was calculated using the following modified ellipsoidal formula: […]
where length was the longest axis of the tumor and width is the measurement at a right angle to the length.
The mice were randomly chosen in groups of three (for each drugs injection) into their respective treatment groups. These include groups of mice with early stage (14 days after tumor induction), mid stage (21 days after tumor induction) and late stage (28 days after tumor induction) tumors. The weights of the mice and their tumor sizes were monitored and measured (using digital calipers) on a daily basis. These precise volumes and measured weights of the mice were used to guide the administration of the drugs. They were also used to monitor toxicity and side effects associated with the drugs. For each of the study groups, 3 mice each were randomly assigned to injection of 10 mg/kg of the specific drug configuration (PTX, [D-Lys6]LHRH-conjugated PTX and DMSO).
Different groups of mice were injected intravenously with each drug through their tail veins. This was done after tumor growth for 14, 21 and 28 days. The mice were injected with 10 mg/kg per week, during the two-week periods in which the effects of drugs were investigated. Following each drug administration, the tumor sizes were monitored with calipers on a daily basis (every 24 hours). In this way, the possible tumor shrinkage, growth or elimination, were monitored on a daily basis. Furthermore, the health status of the mice was monitored on a daily basis. This was done by monitoring the mice for signs of weight loss or altered motor ability in their cages. At the end of study, the mice were euthanized, following the approved IACUC guidelines and procedures. Thereafter, tumor tissues were excised from all of the mice, including tissues from their major organs (kidneys, spleen, liver and lungs).

[2] = system: knocked down LHRH receptors of breast cancer cells; assay: alamar blue reduction after siRNA knockdown of LHRH receptors; assay type: cell-based, human; details: cells treated with siRNAs; 5 μM; 24, 48 and 72 hours
MDA-MB-231 cells = assay: confocal fluorescence imaging of cellular uptake and cytotoxicity; assay type: cell-based, human; details: 30 μM, 6 hours
MDA MB 231 cells = assay: alamar blue cell viability and cytotoxicity assay; assay type: cell-based, human
Description: The alamar blue cell viability and cytotoxicity assay was used to study the MDA MB 231 cells lines in the log phase of growth. MDA MB 231 cells were harvested with trypsin-EDTA in the presence of Dulbecco Phosphate Buffer (DPBS). 10^4 cells/well were then seeded in 12-well plates in L15+ medium (L15 medium with cell medium supplement of FBS and penicillin/streptomycin). After a 3-hour attachment period (of the cells), respective concentrations of 15 μM, 25 μM and 30 μM of paclitaxel, LRH-conjugated paclitaxel (of Example 1) and DMSO (in culture medium) were added to the 12-well plates consisting of 10^4 cells. Cell viability was monitored using the alamar blue cell viability and cytotoxicity reagent (Thermo Fisher Scientific, Waltham, Mass., USA) at times of 0 h, 18 h, 24 h, 48 h and 72 h, following drug addition. At each time point, the culture medium was replaced with 1 ml of 10% alamar blue solution (in culture medium). The 12-well plates were then incubated at 37° C. for different durations. After each time point, 100 µl of the solution incubated with alamar blue solution (ABS) was transferred into triplicate wells of a black opaque 96-well plate (Thermo Fisher Scientific, Waltham, Mass., USA).
The fluorescence intensities of the cell medium supernatant incubated with ABS were measured at 544 nm excitation and 590 nm emission using a 1420 Victor3 multi-label plate reader (Perkin Elmer, Waltham, Mass., USA). The percentage of alamar blue reduction, the percentage difference in cell population between the treated and untreated cells, and the percentage of cell growth inhibition, were determined using a combination of the ABS and cell viability studies. […]
where, FIsample=fluorescence intensity of the (treated or untreated) cells, FI10% AB=fluorescence intensity of 10% alamar blue reagent (negative control) and FI10% R=fluorescence intensity of 100% reduced alamar blue (positive control).
FItreated=fluorescence intensity of treated cells and FIcells=fluorescence intensity of untreated cells

[3] = system: triple negative breast tumor; assay: drug-tissue adhesion study (drug-coated AFM tip); assay type: binding, mice
Description: In an effort to understand the specificity in the targeting of triple negative breast cancer via the receptors that are over-expressed on the tumor, adhesion measurements were carried out on the control xenograft tissue samples at different stages of tumor development. Adhesion forces and interactions (between the different drug molecules and receptors on the surfaces of the tumor tissues at different stages of development) were explored in an effort to understand the interactions of the drugs with the tumor and non-tumor tissue.
Antigen retrieval was carried out on the fixed tissue. This involved exposing target antigens to receptors on a […] thick microtome tissue slice. These sliced tissues were prepared for adhesion measurements in an Asylum MFP3D-Bio Atomic Force Microscope (AFM) (Asylum Research, Oxford Instrument, CA, USA). The AFM tips RESP-20 AFM tip (Bruker Santa Barbara, Calif., USA) were dip-coated with paclitaxel or [D-Lys6]LHRH-conjugated paclitaxel using the techniques described in Obayemi et al. (J. Mech. Behav. Biomed. Mater., 68 (2017), pp. 276-286).
A simple AFM tip dip-coating technique (J. D. Obayemi et al. Materials Science and Engineering C. 66, (2016), 51-65, Hampp, E. et al. Res. 27 (22), 2891, Hutter, J. L. et al. Instrum. 64, 1868) (of the drugs) was used to coat the AFM tips at room-temperature (˜23° C.). In addition, a positive control of LHRH peptides was coated onto the AFM tips and used to determine the adhesion forces between the receptors on breast cancer tissue. All of the coated AFM tips were air-dried for about 6 h and kept in a desiccator overnight before the adhesion measurements.
The spring constants of the coated and uncoated AFM tips were measured experimentally using the thermal tune method (J.D. Obayemi, et al. Mater., 68 (2017), 276-286). This was done to obtain the actual spring constants that were used to calculate the pull-off forces from Hooke's law. The adhesion interactions were measured for the following configurations of coatings on the AFM tips and breast cancer tumor at different stages on the mice: […]

[4] = histopathological and toxicity studies; details: 10 mg/kg weekly for two weeks; for qualitative toxicity (mortality, body weight, clinical signs): tumor-bearing mice
Description: Double doses of 10 mg/kg of PTX and PTX-[D-Lys6]LHRH were then administered (on a weekly basis for two weeks) to female athymic nude mice that were subcutaneously-induced with TNBC. In this way, qualitative toxicity was studied by considering differences in mortality, changes in body weight, clinical signs, gross observations and the histopathology of the lungs, kidneys and the liver at different stages of tumor development. This was done for the different drugs and cancer treatment durations. Daily observations and weight measurements were also used to check for possible animal reactions to the drugs, physiological changes, weight loss/gain, and the general well-being of the mice.
Hematoxylin and eosin (H and E) staining was also carried out. This was used for the identification of tumor necrosis and the examination of histologic changes that occurred in vital organs, following the administration of the drugs. Briefly, formalin-fixed, paraffin-embedded tissue/organs (tumor, kidneys, liver and lungs) samples (5 m) were injected with PTX, [D-Lys6]LHRH-conjugated PTX drugs and DMSO. These were hydrated by passing them through decreasing concentrations (100, 90 &70%) of alcohol baths and water.
The hydrated tissue sections were then stained in hematoxylin solution for 5 mins. This was followed by rinsing with tap water for 3 minutes and differentiation in 1% acid alcohol for 5 minutes. Tap water was then used to rinse (three times) before dipping the sections in ammonia water for 2 minutes. This was followed by staining with eosin for 10 mins. The treated sliced samples were dehydrated in solution with increasing concentrations of alcohols followed by xylene. Finally, a few drops of Permount Mounting Medium were used to mount the resulting samples. The stained slides were then imaged with a 20× objective lens using a TS100F Nikon microscope (Nikon Instruments Inc., Melville, N.Y., USA) coupled with a DS-Fi3 C camera.

[5] = 10 mg/kg per week IV, two weeks

CC(=O)O[C@H]1C(=O)[C@@]2(C)[C@H]([C@H](OC(=O)c3ccccc3)[C@]3(O)C[C@H](OC(=O)[C@H](O)[C@@H](NC(=O)c4ccccc4)c4ccccc4)C(C)=C1C3(C)C)[C@]1(OC(C)=O)CO[C@@H]1C[C@@H]2O [PTX, paclitaxel]
tumor volume, 21-day group ([1]; 10 mg/kg per week IV): 86.83 mm^3
final tumor sizes, day 14 group ([1]; two IV injections (one per week) of 10 mg/kg, mean volume before treatment 67 mm^3): ~49.1 mm^3
xenograft tumor size, 28-day group ([1]; 10 mg/kg per week IV): 299.2 mm^3
cell viability, PTX versus LHRH-conjugated PTX [2]: no significant differences in cell viability

LHRH-PTX
disruption of actin filaments, vinculin structures and cell membranes (MDA-MB-231 cells): more evident
percentage cell growth inhibition (MDA MB 231 cells; 15 μM, 25 μM, and 30 μM, 72 h): effective at inhibiting the growth of MDA MB 231 cells
cytotoxicity on coincubation with LHRH (MDA MB 231 cells; coincubation of LHRH, 72 h): decreased the cytoxicity
cell viability (percentage alamar blue reduction) compared with unconjugated drug (MDA MB 231 cells; without siRNA, 18, 24, 48 and 72 h): significantly reduced cell viability than the unconjugated drugs
adhesion force relative to unconjugated PTX, early stage tumor [3]: nearly three times
adhesion force relative to unconjugated PTX, late stage tumor [3]: about 2 times
adhesion force relative to unconjugated PTX, mid stage tumor [3]: more than three times
qualitative toxicity (mortality, body weight, clinical signs) [4]: No clinical signs, differences in mortality, or changes in body weight
qualitative toxicity (mortality, body weight, clinical signs) ([4]; listed as [D-Lys6]LHRH-conjugated paclitaxel): without any evidence of toxicity
histopathology of liver, lung and kidneys (H&E) ([4]; listed as [D-Lys6]LHRH-conjugated PTX): no significant histological or significant pathological changes; also recorded: no evidence of liver cell hyaline degeneration and necrosis, and no pulmonary edema or hyperplasia observed in the lungs
tumor outcome, mid- and late-stage tumors (21 and 28 days) ([1]; 10 mg/kg IV): significant shrinkage
decrease in xenograft volume compared to unconjugated PTX, 21-day group [1, 5]: 91%
percentage reduction in xenograft tumor volume compared to unconjugated PTX, 28-day group [1, 5]: 90.2%
structural changes in tumor cells/tissue (TEM) ([1]; 21-day and 28-day treatment groups): greater structural changes
tumor volume, 21-day group ([1]; 10 mg/kg per week IV): 7.76 mm^3
necrosis in tumor tissue (H&E) ([1]; compared with unconjugated PTX): higher levels of necrosis in the tumors
tumor outcome, early stage (day 14 group) ([1]; two IV injections (one per week) of 10 mg/kg, listed as LHRH-conjugated paclitaxel): elimination of early stage breast tumors
tumor outcome, early stage (day 14 group) ([1]; two IV injections (one per week) of 10 mg/kg, listed as [D-Lys6]LHRH-conjugated PTX): eliminated
tumor outcome, early stage (day 14 group) ([1]; two IV injections (one per week) of 10 mg/kg, listed as [D-Lys6]LHRH-conjugated paclitaxel): eliminated the tumors
xenograft tumor size, 28-day group ([1]; 10 mg/kg per week IV): 29.4 mm^3
cell viability, PTX versus LHRH-conjugated PTX [2]: no significant differences in cell viability
